Calls of active or inactive are those of the source. Rule as the data show it: actives have a measured IC50 and inactives only a lower limit.
Experiments:
Assay type in all cases: functional
[1] = target: T1, Sentrin-specific protease 7 (Homo sapiens, UniProt Q9BQF6); assay: SENP7 protease inhibitors, SAR follow-up, biochemical, luminescence (AID 504497)
T1 sequence (Q9BQF6 whole entry): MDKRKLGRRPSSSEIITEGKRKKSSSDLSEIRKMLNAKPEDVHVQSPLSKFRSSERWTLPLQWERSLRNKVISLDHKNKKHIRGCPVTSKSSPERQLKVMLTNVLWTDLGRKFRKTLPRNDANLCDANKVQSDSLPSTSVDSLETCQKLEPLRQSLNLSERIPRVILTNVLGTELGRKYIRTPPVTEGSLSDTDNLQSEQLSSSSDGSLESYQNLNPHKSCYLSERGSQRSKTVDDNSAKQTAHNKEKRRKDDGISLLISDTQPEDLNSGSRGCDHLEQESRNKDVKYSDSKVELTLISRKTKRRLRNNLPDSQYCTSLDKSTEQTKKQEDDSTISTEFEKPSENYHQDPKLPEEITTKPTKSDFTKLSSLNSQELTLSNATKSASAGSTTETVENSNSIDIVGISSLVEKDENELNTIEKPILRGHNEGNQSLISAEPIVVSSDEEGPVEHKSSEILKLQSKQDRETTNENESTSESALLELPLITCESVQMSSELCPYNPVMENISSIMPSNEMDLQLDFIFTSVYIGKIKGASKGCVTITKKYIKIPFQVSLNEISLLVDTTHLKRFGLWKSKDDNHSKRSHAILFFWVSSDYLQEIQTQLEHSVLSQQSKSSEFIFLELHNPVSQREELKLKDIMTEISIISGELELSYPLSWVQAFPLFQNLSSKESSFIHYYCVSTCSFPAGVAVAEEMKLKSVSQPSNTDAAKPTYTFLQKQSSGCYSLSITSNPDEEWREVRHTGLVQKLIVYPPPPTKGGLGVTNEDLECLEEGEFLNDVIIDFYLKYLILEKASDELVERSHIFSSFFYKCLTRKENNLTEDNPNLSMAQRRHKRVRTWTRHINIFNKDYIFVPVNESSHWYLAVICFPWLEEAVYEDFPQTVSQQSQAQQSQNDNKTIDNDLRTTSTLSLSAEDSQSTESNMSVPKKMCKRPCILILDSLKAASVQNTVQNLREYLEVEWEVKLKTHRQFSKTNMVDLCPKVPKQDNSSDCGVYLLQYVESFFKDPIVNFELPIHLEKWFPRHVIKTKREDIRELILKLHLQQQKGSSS

Caspase-3 = target: T2, Caspase-3 (Homo sapiens, UniProt P42574); assay: SAR Analysis of small molecule inhibitors of Sentrin-specific proteases (SENPs) using a Caspase-3 Selectivity assay. [Related pubchem assays (depositor defined):AID2540, AID2599, AID434973, AID489001]
T2 sequence (P42574 whole entry): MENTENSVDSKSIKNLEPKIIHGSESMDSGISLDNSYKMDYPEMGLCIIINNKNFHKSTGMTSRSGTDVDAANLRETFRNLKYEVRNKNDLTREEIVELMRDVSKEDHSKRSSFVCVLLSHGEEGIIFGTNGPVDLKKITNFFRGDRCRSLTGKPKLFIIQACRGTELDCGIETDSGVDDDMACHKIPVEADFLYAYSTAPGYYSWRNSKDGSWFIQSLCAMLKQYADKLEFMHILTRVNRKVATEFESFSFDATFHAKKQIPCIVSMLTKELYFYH

[2] = target: T3, Sentrin-specific protease 8 (Homo sapiens, UniProt Q96LD8); assay: SENP8 protease inhibitors, SAR follow-up, biochemical, luminescence (AID 504501)
T3 sequence (Q96LD8 whole entry): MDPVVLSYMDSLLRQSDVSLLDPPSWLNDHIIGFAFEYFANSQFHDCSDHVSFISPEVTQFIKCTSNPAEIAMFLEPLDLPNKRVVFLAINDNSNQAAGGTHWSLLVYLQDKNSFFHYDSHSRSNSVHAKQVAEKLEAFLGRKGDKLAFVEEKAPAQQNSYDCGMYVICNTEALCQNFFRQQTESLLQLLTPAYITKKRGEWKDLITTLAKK

[3] = target: T4, Sentrin-specific protease 6 (Homo sapiens, UniProt Q9GZR1); assay: SAR Analysis of small molecule inhibitors of Sentrin-specific protease 6 (SENP6) using a Luminescent assay. [Related pubchem assays (depositor defined):AID2582, AID2599]
T4 sequence (Q9GZR1 whole entry): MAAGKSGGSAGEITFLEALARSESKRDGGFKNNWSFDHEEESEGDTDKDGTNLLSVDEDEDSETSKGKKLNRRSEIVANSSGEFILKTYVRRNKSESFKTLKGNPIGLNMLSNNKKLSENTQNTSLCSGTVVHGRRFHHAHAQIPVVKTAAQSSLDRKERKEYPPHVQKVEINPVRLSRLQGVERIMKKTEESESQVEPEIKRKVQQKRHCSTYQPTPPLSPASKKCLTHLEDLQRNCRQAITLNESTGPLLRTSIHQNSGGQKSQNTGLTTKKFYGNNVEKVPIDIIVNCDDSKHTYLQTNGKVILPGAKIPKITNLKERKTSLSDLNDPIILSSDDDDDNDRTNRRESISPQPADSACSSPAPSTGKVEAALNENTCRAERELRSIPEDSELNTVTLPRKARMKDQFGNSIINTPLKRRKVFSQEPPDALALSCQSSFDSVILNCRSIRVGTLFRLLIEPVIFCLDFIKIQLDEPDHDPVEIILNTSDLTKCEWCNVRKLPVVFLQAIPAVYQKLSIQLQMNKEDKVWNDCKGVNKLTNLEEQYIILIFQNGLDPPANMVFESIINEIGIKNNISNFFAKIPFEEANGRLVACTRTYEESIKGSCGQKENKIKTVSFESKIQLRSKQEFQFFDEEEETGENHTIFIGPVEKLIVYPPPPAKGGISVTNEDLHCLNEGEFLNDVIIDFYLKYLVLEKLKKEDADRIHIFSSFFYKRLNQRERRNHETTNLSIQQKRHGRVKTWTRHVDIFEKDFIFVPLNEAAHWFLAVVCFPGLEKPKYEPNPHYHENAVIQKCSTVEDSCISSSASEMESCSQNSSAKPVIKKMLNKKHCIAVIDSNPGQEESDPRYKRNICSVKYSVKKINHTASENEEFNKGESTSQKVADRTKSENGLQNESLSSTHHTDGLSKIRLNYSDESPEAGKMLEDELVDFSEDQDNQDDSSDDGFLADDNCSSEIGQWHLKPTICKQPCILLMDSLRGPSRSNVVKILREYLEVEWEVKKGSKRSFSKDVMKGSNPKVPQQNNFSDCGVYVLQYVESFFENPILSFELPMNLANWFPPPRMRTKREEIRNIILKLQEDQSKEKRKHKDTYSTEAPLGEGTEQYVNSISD

IC50 [1]: > 99 µM (inactive)
IC50 (Caspase-3): > 99 µM (inactive)
IC50 [3]: > 99 µM (inactive)
SMILES: Clc1cccc(/N=C/c2ccc(OC3CSC3)cc2)c1
IC50 [2]: > 99 µM (inactive)

Source: ChEMBL document CHEMBL1201862, “PubChem BioAssay data set” (2004)
